Results on ten compounds are retold here after patent US20230012172A1, “COMPOSITIONS AND METHODS FOR TREATMENT OF PLATINUM-BASED CHEMOTHERAPEUTIC RESISTANT TUMORS” (The George Washington University, priority 2020, published 2023).

The subject of series [1] is SENP1. Kind of series: SENP1 IHC in IGROV1 xenograft tumors of carboplatin-treated mice. Conditions: carboplatin 20 mg/kg or 60 mg/kg. The class given is in vivo, immunodeficient nude mice. As to the method:
(§1) The SENP1 protein level was increased while JAK2 SUMOylation was decreased correspondingly in IGROV1 cells treated with cisplatin in a time and dose dependent manner (FIGS. 4F and 4G). To further test the SENP1 induction by platinum drugs in vivo, SENP1 protein levels were measured in IGROV1 xenograft tumors using immunohistochemistry (IHC) in implanted immunodeficient nude mice that were treated with carboplatin at 20 mg/kg or 60 mg/kg after tumor was developed.
Immunohistochemistry. Immunohistochemical (IHC) staining and scoring were performed similar to that previously described n Zhou et al., (2018) Oncogene 37, 3981-3997, the disclosure of which is incorporated herein in its entirety. The quantification of immunohistochemical staining was scored blindly at least by two independent observers.

Another series concerns IGROV1 CR cells. Kind of series: Cell viability assay (SRB) in IGROV1 CR cells. The series is classed as cell-based, human. Conditions: for toxicity (cell viability): 150 nM, IGROVI CR cells. As to the method:
(§2) Cell culture and resistance cell line establishment. IGROV1 cells, U2OS (HTB-96; ATCC), HEK293T (CRL-11268; ATCC) and SKOV3 cells (HTB-77; ATCC) were cultured at 37° C. in DMEM with 10% Fetal Bovine Serum (FBS). PEO1 (10032308; Sigma-Aldrich), PEO4 (10032309; Sigma-Aldrich), PEO14 (10032311; Sigma-Aldrich) and PE023 cells (10032313; Sigma-Aldrich) were cultured at 37° C. in RPMI-1640 with 10% FBS. OV90 (CRL-11732; ATCC) was cultured in medium containing 1:1 MCDB 105 (Sigma) and M199 (Sigma) supplemented with 10% FBS at 37 ° C. All the cells were cultured at in a humidified incubator with 5% CO2 atmosphere. Cisplatin resistant cell lines, including SKOV3 CR, IGROV1 CR and OV90 CR, were generated using an approach similar to that reported in Zhou et al., (2018) Oncogene 37, 3981-3997, the disclosure of which is incorporated herein in its entirety.
Cell viability assay. Cells were seeded at 3,000 cells/well in 96-well plates were treated with drugs, followed by incubation for 48 hours, after which cell viability was detected using Sulforhodamine B (SRB) assay (64). Absorbance at 510 nm was detected using a SpectraMax Reader (Molecular Devices) and analyzed with SoftMax Analysis Software (Molecular Devices). Combinational index (CI) values were calculated using CompuSyn software.

The next series deals with SKOV3 CR cells. Kind of series: Cell viability assay (SRB) in SKOV3 CR cells. The series is classed as cell-based. Conditions: for synergistic effects with cisplatin (combination index): SKOV3 CR cells. On the procedure: as §2, with “Sigma-Aldrich) and PE023 cells (10032313;” left out, “ATCC) was cultured in medium containing 1:1 MCDB 105 (Sigma) and M199 (Sigma) supplemented with 10% FBS at 37 ° C.” left out, “entirety. Cell viability assay. Cells were seeded at 3,000 cells/well in 96-well plates were treated with drugs, followed by incubation for 48 hours, after which cell viability was detected using Sulforhodamine B (SRB) assay (64). Absorbance at 510 nm was detected using a SpectraMax Reader (Molecular Devices) and analyzed with SoftMax Analysis Software (Molecular Devices). Combinational index (CI) values were calculated using CompuSyn software.” for “entirety.”

For series [2], the system named is SENP1. In words: SENP1 protein and JAK2 SUMOylation in IGROV1 cells treated with cisplatin (Western blot). The class given is cell-based, human. Conditions: time and dose dependent. On the procedure: as §1
Background: In western blotting, separated proteins are transferred to a membrane and probed.

For the next series, the system named is JAK2. In words: Cell-free kinase assay with JAK2 purified from treated cells, recombinant STAT3 substrate. The class given is biochemical. Conditions: JAK2 purified from IGROV1 cells treated with inhibitor. On the procedure:
Phosphorylation of STAT3 at tyrosine 705 (Y705) by JAK2 is one of the most important and well established cytoplasmic functions of JAK2. To determine whether accumulation of JAK2 in nucleus by depleting SENP1 affected JAK2 cytoplasmic activity, phosphorylated STAT3 (pSTAT3 (Y705)) levels was evaluated in SENP1 depleted IGROV1 cells.
To this end, cell-free kinase assays were performed using JAK2 purified from cells treated with siSENP1 or UAMMC9.

In series [3] the target is T1, SENP1 (Homo sapiens, UniProt Q9P0U3).
T1 sequence (Q9P0U3 1-644): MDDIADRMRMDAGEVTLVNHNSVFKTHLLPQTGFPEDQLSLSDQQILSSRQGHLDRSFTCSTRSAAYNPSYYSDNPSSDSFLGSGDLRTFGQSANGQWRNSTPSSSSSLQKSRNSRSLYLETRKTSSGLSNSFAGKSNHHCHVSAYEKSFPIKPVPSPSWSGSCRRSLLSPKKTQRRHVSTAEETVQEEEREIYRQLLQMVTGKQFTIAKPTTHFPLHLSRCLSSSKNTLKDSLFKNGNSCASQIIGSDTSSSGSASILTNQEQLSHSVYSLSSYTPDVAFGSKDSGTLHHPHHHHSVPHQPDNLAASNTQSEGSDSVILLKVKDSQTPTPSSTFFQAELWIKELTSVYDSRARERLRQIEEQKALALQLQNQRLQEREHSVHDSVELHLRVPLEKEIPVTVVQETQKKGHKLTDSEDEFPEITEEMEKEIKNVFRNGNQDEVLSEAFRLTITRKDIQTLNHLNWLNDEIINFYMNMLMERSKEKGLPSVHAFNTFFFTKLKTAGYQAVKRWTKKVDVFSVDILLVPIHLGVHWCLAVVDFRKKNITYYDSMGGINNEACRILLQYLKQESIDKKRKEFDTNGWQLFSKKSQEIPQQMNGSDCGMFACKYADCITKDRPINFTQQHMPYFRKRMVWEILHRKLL
Kind of series: In vitro deSUMOylation assay with recombinant His-JAK2 and GST-SENP1. The class given is biochemical. Further details: made in house; host or cells: E. coli BL21 (DE3) for pET28a-JAK2. Conditions: SUMOylated His-JAK2 incubated with GST-SENP1 and compound for 3 hours. On the procedure:
To further determine whether SENP1 can directly deSUMOylate JAK2, in vitro deSUMOylation assays were performed by using purified recombinant His-JAK2 and GST-SENP1 proteins.
In vitro SUMOylation assay. The SUMOylation reactions were performed according to the manufacture's instruction (BML-UW8955-0001; ENZO). Briefly, 200 nM of purified HIS-JAK2 was suspended in reaction buffer (20 μl) containing Mg-ATP, SUMO E1, SUMO E2 and recombinant SUMOs. RanGAP1 (provided in the kit) was used as the substrate for positive control. The reaction was incubated at 37° C. for 60 minutes and terminated by using 20 μl of SDS loading buffer. […] The reactions were then subjected to Western blot to evaluate SUMOylation level.
Protein expression and purification. pET28a-JAK2 and its mutant was transformed in BL21 (DE3) E. coli cells by heat shot method at 42° C. and grown in Luria Broth (LB) at 37° C. E. coli cells were induced with 0.5 mM IPTG to induct protein expression. Cells were harvested by centrifugation at 5,000 g, 4° C. for 15 min and the pellet was resuspended in lysis buffer (20 mM Tris pH 7.9, 500 mM NaCl, 5 mM imidazole, 2 mM DTT and 1× protease inhibitor cocktail). Cells were then sonicated and centrifuged at 14,000 g, 4° C. for 15 min. 1 ml of Ni-NTA was added to the supernatant and incubated at 4° C. with end-to-end mixing for 2 hours and subjected to a column. The Ni-NTA resin was washed with 10 ml wash buffer (20 mM Tris pH 7.9, 250 mM NaCl, 15 mM Imidazole and 0.5 mM DTT) and eluted with 1 ml elution buffer (20 mM Tris pH 7.9, 250 mM NaCl and 1 M imidazole). The elute was then concentrated by using a protein concentrator (Thermo Scientific™ Pierce™) and resuspend in dialysis buffer (50 mM Tris pH 7.9, 50 mM NaCl, 2 mM DTT, and 10% glycerol). The purified protein was stored at −80° C. pGEX-4T1-SENP1 and its mutant were purified using following buffers: lysis buffer (1 mM DTT, and lx protease inhibitor cocktail, 800 mM NaCl, 5 mM EDTA, 50 mM Tris-pH8.0, 0.1% Triton x-100), wash buffer (800 mM NaCl, 5 mM EDTA, 50 mM Tris-pH8.0, 0.1% Triton x-100), elution buffer (40 mM glutathione, 800 mM NaCl, 5 mM EDTA, 50 mM Tris-pH8.0, 0.1% Triton x-100), dialysis buffer (50 mM Tris pH 7.9, 50 mM NaCl, 2 mM DTT, and 10% glycerol).

SMILES strings stand for the structures. pIC50: −log10 of the molar value.

As for `N.N.O=C([O-])C1(C(=O)[O-])CCC1.[Pt+2]` [Carboplatin, carboplatin], in the series with SENP1 [1], the “SENP1 expression in ovarian tumors (IHC)” value was “significant increase”. As to `N.N.[Cl][Pt][Cl]` [Cisplatin, cisplatin], the pIC50 in the series on IGROV1 CR cells (cisplatin alone or with 150 nM UAMMC, read-out: Cisplatin IC50 with 150 nM of UAMMCs on IGROV1 CR cells) was 4.85. The pIC50 in the series with SKOV3 CR cells (cisplatin alone or with 150 nM UAMMC, read-out: Cisplatin IC4 with 150 nM of UAMMCs on SKOV3 CR cells, IC50) was 4.91. Besides, in the series on SENP1 [2], the “JAK2 SUMOylation” value is recorded as “decreased” and the SENP1 protein level result was “increased”. Regarding `Cc1cnc(Nc2ccc(OCCN3CCCC3)cc2)nc1Nc1cccc(S(=O)(=O)NC(C)(C)C)c1` [TG101348], the “phosphorylation of recombinant substrate STAT3 proteins by purified JAK2” value with JAK2 is given as “decreased phosphorylation”. Turning to `C[C@@H]1CC[C@]2(C(=O)OCCNC(=O)OC(C)(C)C)CC[C@]3(C)C(=CCC4[C@@]5(C)CC[C@H](O)C(C)(C)C5CC[C@]43C)C2[C@H]1C` (stereo partly drawn) [UAMMC3], the “toxicity (cell viability)” value in the series on IGROV1 CR cells is “higher toxicity”. Same read-out and setting: the result for `C[C@@H]1CC[C@]2(C(=O)OCC(=O)NCCO)CC[C@]3(C)C(=CCC4[C@@]5(C)CC[C@H](O)C(C)(C)C5CC[C@]43C)C2[C@H]1C` (stereo partly drawn) [UAMMC5] reads “higher toxicity”. For `CC1CCC2(C(=O)NCC(=O)N(C)CCO)CCC3(C)C(=CCC4C5(C)CCC(O)C(C)(C)C5CCC43C)C2C1C` (stereo not drawn) [UAMMC9], in the series with IGROV1 CR cells (150 nM UAMMC9, IGROVI CR cells), the “decrease of the IC50 of cisplatin” value is 4.19 fold. As for `C[C@H]1[C@H](C)CC[C@]2(C(=O)O)CC[C@]3(C)C(=CC[C@@H]4[C@@]5(C)C[C@@H](O)[C@H](O)C(C)(C)[C@@H]5CC[C@]43C)[C@H]12` [corosolicin acid], in the series with SKOV3 CR cells, the “synergistic effects with cisplatin (combination index)” value is “synergistic effects”. The same measure, in the same setting: the result for `CC1(C)CC[C@]2(C(=O)O)[C@H](O)C[C@]3(C)C(=CC[C@@H]4[C@@]5(C)CC[C@H](O)C(C)(C)[C@@H]5CC[C@]43C)[C@H]2C1` [echinocyslic acid] reads “synergistic effects”. For `C[C@@H]1CC[C@]2(C(=O)O)CC[C@]3(C)C(=CC[C@@H]4[C@@]5(C)CC[C@H](O)C(C)(C)[C@@H]5CC[C@]43C)[C@@H]2[C@]1(C)O` [pomolic acid], the “synergistic effects with cisplatin (combination index)” value in the series on SKOV3 CR cells is “synergistic effects”. In addition, the “inhibited SENP1 activity in vitro” value at SENP1 [3] was “inhibited”. The corresponding values for `C[C@@H]1CC[C@]2(C(=O)O)CC[C@]3(C)C(=CC[C@@H]4[C@@]5(C)C[C@@H](O)[C@H](O)C(C)(C)[C@@H]5CC[C@]43C)[C@@H]2[C@]1(C)O` [tormentic acid] are “synergistic effects” and “inhibited”.
